Source: US6682763B2, “Skin-beautifying agent, anti-aging agent for the skin, whitening agent and external agent for the skin” (The Nisshin Oil Mills, Ltd., priority 1999, dated 2004)

Tested on: B-16 melanoma cells
Settings: mouse, 5 days
Procedure: If the culture system includes a substance capable of inhibiting the melanin-production during the proliferation, the darkening of the cells is suppressed, while the whitening thereof is promoted. Thus, the melanin-production-inhibitory function can be evaluated by comparing the degree of darkening of cells observed when any sample is not added with the degree of whitening of cells observed when the sample is added. In this connection, some of substances may be toxic to the B-16 melanoma cells. To evaluate this cytotoxicity, the cell-survival rate observed when a sample is not added is compared with that observed for the system free of any sample. The melanin-production-inhibitory function is evaluated using the cell-whitening degree and the cell-survival rate in combination.
Cytotoxicity Index=C/D <Formula 4>
In this respect, the term “cell-survival rate” herein used is defined by the following <Formula 5>:
Cell-Survival Rate(%)=(E/F)×100 <Formula 5>
E: Viable cell count observed for the system to which a sample is added.
F: Number of cells observed for the system free of any added test sample. […]
The rate of cell-survival can be calculated according to the aforementioned relation: <Formula 5>.

OC[C@H]1O[C@@H](Oc2ccc(O)cc2)[C@H](O)[C@@H](O)[C@@H]1O [arbutin]
concentration at N.D. (rate of cell survival not more than 10%): 500 ppm
